Test results taken from patent US11707449B2, “Methods and formulations for treatment of spinobulbar muscular atrophy” (ST. JUDE CHILDREN'S RESEARCH HOSPITAL, INC., priority 2017, dated 2023).

Assays:
[1] = target: T1, AR BF3 binding pocket and Bag-1L (Homo sapiens, UniProt P10275); settings: cited from earlier work
T1 sequence (P10275 1-920): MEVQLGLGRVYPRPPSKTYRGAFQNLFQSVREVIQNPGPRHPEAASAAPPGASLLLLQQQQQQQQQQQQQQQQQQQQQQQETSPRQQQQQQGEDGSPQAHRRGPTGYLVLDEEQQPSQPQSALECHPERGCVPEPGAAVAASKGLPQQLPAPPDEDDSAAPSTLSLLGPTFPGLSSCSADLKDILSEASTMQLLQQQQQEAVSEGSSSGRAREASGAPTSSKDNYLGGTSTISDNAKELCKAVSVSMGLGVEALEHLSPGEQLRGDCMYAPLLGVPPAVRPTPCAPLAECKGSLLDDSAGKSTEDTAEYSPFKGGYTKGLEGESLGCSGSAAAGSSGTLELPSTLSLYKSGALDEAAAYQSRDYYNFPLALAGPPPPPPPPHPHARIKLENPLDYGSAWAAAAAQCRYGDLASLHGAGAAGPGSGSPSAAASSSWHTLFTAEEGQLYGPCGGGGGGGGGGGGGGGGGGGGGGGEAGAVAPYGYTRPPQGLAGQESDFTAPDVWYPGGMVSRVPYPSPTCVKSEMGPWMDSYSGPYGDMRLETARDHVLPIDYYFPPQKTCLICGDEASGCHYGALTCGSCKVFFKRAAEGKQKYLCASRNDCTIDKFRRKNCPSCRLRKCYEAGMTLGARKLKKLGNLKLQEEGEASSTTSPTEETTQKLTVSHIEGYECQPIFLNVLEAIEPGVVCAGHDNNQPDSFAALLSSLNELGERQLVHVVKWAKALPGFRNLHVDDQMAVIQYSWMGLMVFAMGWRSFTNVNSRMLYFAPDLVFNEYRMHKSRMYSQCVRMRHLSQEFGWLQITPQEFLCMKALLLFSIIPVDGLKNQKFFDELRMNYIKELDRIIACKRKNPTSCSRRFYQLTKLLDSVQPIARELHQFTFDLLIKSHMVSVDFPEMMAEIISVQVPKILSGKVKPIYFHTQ

[2] = test system: flies expressing human AR52Q in pan-neuronal tissues (ELAV>UAS-AR52Q); assay: Viability of SBMA flies (rescue of DHT-induced lethality); format: in vivo, Drosophila; settings: flies reared on food containing 1 mM DHT and compound (TA, MEPB 0 to 400 μM)
Description: UAS-AR52Q, UAS-AR52Q-K720A, and UAS-AR66Q-E897K fly stocks were generated as previously described^8. Fly stocks were crossed to various GAL4 driver lines (ELAV-GAL4 for pan-neuronal, OK371-GAL4 for motor neuron, GMR-GAL4 for eye) to induce expression of the AR transgene in a tissue-specific manner in fly vials containing fly food with either vehicle (1% ethanol +/−0.1% DMSO) or drugs. Upon the presence of progeny, parental flies were removed, and F1 flies were scored for phenotypic analysis. Viability was determined as previously described^40. Briefly, the population frequency of adult F1 SBMA flies (ELAV>UAS-AR52Q or OK371>UAS-AR52Q) and control flies (GAL4-ELAV; CyO-GFP) were determined by the presence or absence of the CyO phenotypic marker. At least three independent biological replicates (F0 crosses) were performed with new drug/food preparations for each treatment group, and a total of at least 50 flies were scored for each treatment group. To determine locomotor activity of SBMA flies, adult F1 flies (OK371>UAS-AR52Q) reared on food containing vehicle or drug were allowed to walk for 90 seconds in one well of a 12-well tissue culture plate while video was recorded using a Leica M205C stereomicroscope and Leica DFC320 digital camera. Videos were recorded for at least 15 flies per treatment group. Tracing of fly movement and analysis of displacement and velocity were performed using ImageJ software. Preparation and staining of larval neuromuscular junctions and ventral ganglions were performed as previously described^8.

Row | Compound | BF3-Bag-1L binding [1] | SBMA fly viability [2]
1 | Cc1cccc(C)c1OCCSc1nc2ccccc2[nH]1 [CPD49, 2-((2-(2,6-dimethylphenoxy)ethyl)thio)-1H-benzimidazole] | inhibited | 
2 | CC(C)Cc1ccc(C(C)C(=O)O)cc1 (centres unmarked) [ibuprofen] |  | did not
